B1: SIRT3-H248Y-His: catalytically inactive SIRT3 (protein, UniProt Q9NTG7 1-399, looked up, variant H248Y)
chain: MAFWGWRAAAALRLWGRVVERVEAGGGVGPFQACGCRLVLGGRDDVSAGLRGSHGARGEPLDPARPLQRPPRPEVPRAFRRQPRAAAPSFFFSSIKGGRRSISFSVGASSVVGSGGSSDKGKLSLQDVAELIRARACQRVVVMVGAGISTPSGIPDFRSPGSGLYSNLQQYDLPYPEAIFELPFFFHNPKPFFTLAKELYPGNYKPNVTHYFLRLLHDKGLLLRLYTQNIDGLERVSGIPASKLVEAYGTFASATCTVCQRPFPGEDIRADVMADRVPRCPVCTGVVKPDIVFFGEPLPQRFLLHVVDFPMADLLLILGTSLEVEPFASLTEAVRSSVPRLLINRDLVGPLAWHPRSRDVAQLGDVVHGVESLVELLGWTEEMRDLVQRETGKLDGPDK
modifications: His tag

Key:
HIF1α = HIF1α protein level (immunoblot) in SIRT3 WT and KO MEFs; assay type: cell-based, mouse; conditions: 1 mM DMOG
Procedure: Significance was assessed by one-way ANOVA. […] Error bars, ±SD. […] Error bars (except for growth curves), ±SEM. (*) p<0.05; (**) p<0.01.
(§1) A series of experiments were performed comparing the effects of hypoxia and DMOG treatment on SIRT3 WT and KO MEFs.

HIF1α target genes = assay: Expression of HIF1α target genes (qRT-PCR) in SIRT3 WT and KO MEFs; assay type: cell-based, mouse; conditions: DMOG treatment
Procedure: (B) Fold induction of HIF1αtarget genes in response to hypoxia (n=6) measured by qRT-PCR. The ratio of hypoxic to normoxic gene expression is shown. (C) Fold induction of Glut1 and Hk2 in response to DMOG treatment was measured by qRT-PCR and the ratio of untreated to DMOG-treated gene expression is shown (n=6). […] Significance was assessed by one-way ANOVA. […] Error bars, ±SD.
as §1

SIRT3 KO MEFs = assay: Growth rates of SIRT3 WT and KO MEFs cultured with NAC; assay type: cell-based, mouse; conditions: media supplemented with 10 mM NAC
Procedure: (A) Nuclear extracts from shNS and shSIRT3 HEK293T cells treated with or without 10 μM MG-132 for 1 hour or 1 mM DMOG for 4 hours as indicated were immunoblotted with antibodies specific to hydroxylated HIF1α (HIF—OH) or total HIF1α. (B) Fold induction of HIF1αtarget genes in response to hypoxia (n=6) measured by qRT-PCR. The ratio of hypoxic to normoxic gene expression is shown. (C) Fold induction of Glut1 and Hk2 in response to DMOG treatment was measured by qRT-PCR and the ratio of untreated to DMOG-treated gene expression is shown (n=6). (D) The increase in ROS production with hypoxia was calculated as the fold change in ROS in hypoxic cells relative to normoxic controls. […] Significance was assessed by one-way ANOVA. […] Error bars, ±SD. Protein carbonyls (I) and lipid peroxidation (J) were measured in brown adipose tissue (BAT) of SIRT3 WT and KO mice (n=7). […] Error bars (except for growth curves), ±SEM. […]
To confirm that the metabolite patterns reflected an increase in glycolysis, lactate produced and secreted from SIRT3 WT and KO MEFs (n=5) was measured and normalized to cell number. […] To test whether this apparent increase in aerobic glycolysis supported an increase in biomass and proliferation, growth rates of the MEFs were measured by seeding SIRT3 WT and KO MEFs in six-well plates at a density of 5,000 cells/well and counting the number of cells in triplicate every 24 hours. […]

CAMA1 cells = assay: Glucose uptake and lactate production in CAMA1 control or SIRT3 overexpressing cells with rotenone or etomoxir; assay type: cell-based, human; conditions: 100 nM rotenone or 50 μg/ml etomoxir
Procedure: (A) Lactate production and (B) glucose consumption of MCF7, T47D and CAMA1 cells stably expressing empty vector or SIRT3 and cultured under hypoxia expressed as a ratio of empty-vector normoxic controls. (C) Relative glucose uptake and (D) relative lactate production in CAMA1 control or SIRT3 overexpressing cells incubated with or without 100 nM rotenone. (E) Glucose uptake and (F) lactate production in CAMA1 cell lines cultured in the presence or absence of 50 μg/ml etomoxir. (G) Immunoblots of CAMA1 cells stably expressing control vector or SIRT3-FLAG cultured at 1% oxygen for the indicated. (H) qRT-PCR of HIF1α target genes in CAMA1 cells cultured at 1% oxygen. (I) Induction of HIF1α target genes in response to hypoxia measured by qRT-PCR in CAMA1 cells. The ratio of normoxic to hypoxic gene expression in each cell line is shown. (J) Induction of HIF1α target genes in response to 1 mM DMOG treatment measured by qRT-PCR in CAMA1 cells. The ratio of untreated to DMOG-treated gene expression in each cell line is shown. Growth curves of CAMA1 cells (n=3) cultured in glucose (K) or galactose (L). Error bars, ±SD. (M) Schematic of the regulation of HIF1α and the Warburg effect by SIRT3. β-2-microglobulin was used as an endogenous control for qRT-PCR. Error bars (except for growth curves), ±SEM. (*) p<0.05; (**) p<0.01.
To examine the contribution of complex I activity or fatty acid oxidation on these phenotypes, glucose uptake and lactate production was measured in the presence of rotenone and etomoxir.
Metabolites were isolated by methanol extraction from cultured cells and analyzed by liquid chromatography-mass spectrometry (LC-MS). Lactate production was measured using the Lactate Reagent Kit (Trinity Biosciences). For immunoblotting, cell lysates and immunoprecipitations were probed with the following antibodies: Total OXPHOS antibody cocktail, complex II antibody cocktail, and OSCP (Mitosciences); Flag (Sigma); acetyl-lysine, LSD1 and hydroxylated HIF1α (Cell Signaling); SUCLA2 and GFP (Santa Cruz); GDH (USBiological); mouse HIF1α (Novus Biologicals) and human HIF 1 (BD Biosciences). The antibody recognizing murine SIRT3 was raised in rabbits against the (C) […] epitope conjugated to KLH at the added cysteine (Covance Research Products). SDH activity was determined by a colorometric spectrophotometric assay measuring the reduction of 2,6-dichlorophenolindophenol.

SIRT3 WT and KO MEFs = assay: Glucose uptake and lactate secretion in MEFs with oxidation inhibitors; assay type: cell-based, mouse; conditions: WT cells; 100 nM rotenone or 50 μg/ml etomoxir, 24 hours
Source text: (A) Schematic illustrating the metabolites that are increased or decreased in SIRT3 KO MEFs compared to SIRT3 WT MEFs (n=4), p<0.1. Metabolites in parentheses were not measured. PPP, pentose phosphate pathway. The nonoxidative and oxidative arms of the PPP are shown. Levels of glycolytic intermediates (B), TCA cycle intermediates (C), glucose (D), glucose-1-phosphate (E) and ribose-5-phosphate (F). Growth curves of SIRT3 WT and KO MEFs (n=3) cultured in media containing glucose (G) or galactose (H). Error bars, ±SD. (1-N) Glucose uptake and lactate production in SIRT3 WT and KO MEFs (n=6). (I) Relative glucose uptake and (J) lactate production in SIRT3 WT and KO MEFs. (K) Relative glucose uptake and (L) relative lactate production in SIRT3 WT and KO MEFs incubated with or without 100 nM rotenone. (M) Glucose uptake and (N) lactate production in SIRT3 WT and KO MEFs cultured in the presence or absence of 50 μg/ml etomoxir. Cells were treated with drugs for 24 hours before measuring glucose uptake and lactate. All error bars (except growth curves), ±SEM. […]
Metabolites were isolated by methanol extraction from cultured cells and analyzed by liquid chromatography-mass spectrometry (LC-MS). Lactate production was measured using the Lactate Reagent Kit (Trinity Biosciences). […] SDH activity was determined by a colorometric spectrophotometric assay measuring the reduction of 2,6-dichlorophenolindophenol.

SDHA = assay: In vitro deacetylation of SDHA in complex II immunoprecipitates; assay type: biochemical, mouse; conditions: with NAD, 2 hours at 37° C.

Molecule	glucose uptake (CAMA1 cells)	lactate production (CAMA1 cells)	glycolysis (glucose uptake and lactate production) (SIRT3 WT and KO MEFs)	other results
COC(=O)CNC(=O)C(=O)OC [DMOG, dimethyloxaloylglycine]				HIF1α stabilization (HIF1α): stabilize HIF1α; expression of HIF1α target genes (Glut1, Hk2) (HIF1α target genes): induce expression of HIF1α target genes
CC(=O)N[C@@H](CS)C(=O)O [NAC, N-acetylcysteine]				proliferation (growth rate) (SIRT3 KO MEFs): rescued the increased proliferation of SIRT3 KO MEFs
CCOC(=O)[C@@]1(CCCCCCOc2ccc(Cl)cc2)CO1 [etomoxir]	increased	increased	increased	
C=C(C)[C@H]1Cc2c(ccc3c2O[C@@H]2COc4cc(OC)c(OC)cc4[C@@H]2C3=O)O1 [rotenone]	increased	increased	increased	
B1				deacetylation of SDHA (SDHA): not
